Reference: ChEMBL document CHEMBL1201862, “PubChem BioAssay data set” (2004)
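Step 1: Grow cells in 96-well plates. Step 2: Expose to compound for 48 hours at 5 concentrations. Step 3: Interpolate endpoints linearly; if unreached, use highest concentration. The concentration for 50% growth inhibition is given as GI50.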 Active and inactive are the calls of the source. Rule as the data show it: active = GI50 up to about 1.1 µM and inactive = higher.

Tests used:
Experiment in all cases: NCI-60 cell line screen, 48 h
[1] = system: COLO 205
[2] = system: HL-60
[3] = system: NCI-H23
[4] = system: SW-620
[5] = system: HCT-116
[6] = system: SK-OV-3
[7] = system: SF-295
[8] = system: NCI-H460
[9] = system: EKVX
[10] = system: OVCAR-8
[11] = system: OVCAR-3
[12] = system: CCRF-CEM
[13] = system: UACC-257
[14] = system: ACHN
[15] = system: Malme-3M
[16] = system: OVCAR-5

Row | Structure (SMILES) | GI50 [1] | GI50 [2] | GI50 [3] | GI50 [4] | GI50 [5] | GI50 [6] | GI50 [7] | GI50 [8] | GI50 [9] | GI50 [10] | GI50 [11] | GI50 [12] | GI50 [13] | GI50 [14] | GI50 [15] | GI50 [16]
1 | COc1ccc(NCc2cc(OC)c(OC)c(OC)c2)cc1 | 0.233 µM (active) | 0.115 µM (active) | 0.513 µM (active) | 0.234 µM (active) | 0.367 µM (active) | 0.504 µM (active) | 0.242 µM (active) | 0.359 µM (active) | 4.97 µM (inactive) | 0.851 µM (active) | 0.34 µM (active) | – | – | – | – | –
2 | O=c1oc2ccccc2c(O)c1C(C/C(CCN1CCCC1)=N\Nc1ccccc1)c1ccccc1 (stereo not given) | – | 24.2 µM (inactive) | 57.3 µM (inactive) | 44.6 µM (inactive) | 82.6 µM (inactive) | 94.4 µM (inactive) | 55.7 µM (inactive) | 70.8 µM (inactive) | > 100 µM (inactive) | > 100 µM (inactive) | 53.5 µM (inactive) | 27.9 µM (inactive) | 77.8 µM (inactive) | 54.8 µM (inactive) | 78.5 µM (inactive) | > 100 µM (inactive)
3 | O=C(O/N=C1/CCC/C1=C\c1ccccc1)c1ccc(Cl)c(Cl)c1 | > 100 µM (inactive) | > 100 µM (inactive) | > 100 µM (inactive) | > 100 µM (inactive) | > 100 µM (inactive) | > 100 µM (inactive) | > 100 µM (inactive) | > 100 µM (inactive) | > 100 µM (inactive) | > 100 µM (inactive) | > 100 µM (inactive) | > 100 µM (inactive) | > 100 µM (inactive) | > 100 µM (inactive) | > 100 µM (inactive) | > 100 µM (inactive)
4 | CCN1CCC(O)(c2ccc(C)cc2)C(C(=O)c2ccc(C)cc2)C1 (stereo not given) | 23.6 µM (inactive) | 20.3 µM (inactive) | > 40 µM (inactive) | 16.8 µM (inactive) | 16.7 µM (inactive) | > 100 µM (inactive) | > 100 µM (inactive) | > 52.6 µM (inactive) | 17.3 µM (inactive) | 25.5 µM (inactive) | 21.9 µM (inactive) | 18.3 µM (inactive) | 19.1 µM (inactive) | 17.5 µM (inactive) | 19.5 µM (inactive) | 20.2 µM (inactive)
5 | Nc1nc(CCl)nc(Nc2ccccc2)n1 | 21.8 µM (inactive) | 3.27 µM (inactive) | 18.6 µM (inactive) | 21.3 µM (inactive) | 19.5 µM (inactive) | – | 23.8 µM (inactive) | 17.3 µM (inactive) | – | 30.2 µM (inactive) | 17.2 µM (inactive) | 2.14 µM (inactive) | 15.9 µM (inactive) | 27 µM (inactive) | 17.4 µM (inactive) | 19.9 µM (inactive)
6 | O=C(NCc1cccnc1)C1COc2cc(-c3cc(=O)c4ccccc4o3)ccc2O1 (stereo not given) | > 100 µM (inactive) | > 46.5 µM (inactive) | 13.6 µM (inactive) | > 100 µM (inactive) | 21.7 µM (inactive) | > 100 µM (inactive) | 7.6 µM (inactive) | 51.4 µM (inactive) | > 81.5 µM (inactive) | 3.64 µM (inactive) | > 100 µM (inactive) | > 100 µM (inactive) | 4.94 µM (inactive) | 22.5 µM (inactive) | > 64.6 µM (inactive) | > 100 µM (inactive)
7 | C/C(CCn1[nH]c(=O)ccc1=O)=N\N=C(N)N | – | > 100 µM (inactive) | > 100 µM (inactive) | > 100 µM (inactive) | > 100 µM (inactive) | – | > 100 µM (inactive) | > 100 µM (inactive) | > 100 µM (inactive) | > 100 µM (inactive) | > 100 µM (inactive) | > 100 µM (inactive) | > 100 µM (inactive) | > 100 µM (inactive) | > 100 µM (inactive) | > 100 µM (inactive)
8 | Cc1ccc(S(=O)(=O)N(CC(=O)O)c2ccccc2)cc1 | > 100 µM (inactive) | > 100 µM (inactive) | > 100 µM (inactive) | > 100 µM (inactive) | – | > 100 µM (inactive) | > 100 µM (inactive) | > 100 µM (inactive) | > 100 µM (inactive) | > 100 µM (inactive) | > 100 µM (inactive) | > 100 µM (inactive) | > 100 µM (inactive) | > 100 µM (inactive) | > 100 µM (inactive) | > 100 µM (inactive)
9 | COc1ccccc1NC(=O)C1=C(C)NC(C)=C(C(=O)Nc2ccccc2OC)C1c1ccccc1[N+](=O)[O-] | 16.9 µM (inactive) | 20.2 µM (inactive) | 16.8 µM (inactive) | – | > 100 µM (inactive) | 26.9 µM (inactive) | 32.4 µM (inactive) | 16.1 µM (inactive) | 64.1 µM (inactive) | 19.2 µM (inactive) | 18.5 µM (inactive) | 18.9 µM (inactive) | 19 µM (inactive) | 18.6 µM (inactive) | 13.9 µM (inactive) | 41 µM (inactive)
10 | Cn1c(NC(=O)NC23CC4CC(CC(C4)C2)C3)nc2ccccc21 | > 100 µM (inactive) | > 100 µM (inactive) | > 100 µM (inactive) | > 100 µM (inactive) | 15.3 µM (inactive) | 17.4 µM (inactive) | 12.6 µM (inactive) | 38.4 µM (inactive) | 83.8 µM (inactive) | > 100 µM (inactive) | > 100 µM (inactive) | – | 94.2 µM (inactive) | 27.5 µM (inactive) | 17.5 µM (inactive) | > 100 µM (inactive)
11 | Cc1cc(C)cc(Sc2c([N+](=O)[O-])ncn2C)c1 | 12.4 µM (inactive) | – | 14.8 µM (inactive) | 14 µM (inactive) | 13.8 µM (inactive) | 23.8 µM (inactive) | 21.9 µM (inactive) | 18.2 µM (inactive) | 27.7 µM (inactive) | 12.8 µM (inactive) | 13 µM (inactive) | 15.6 µM (inactive) | 14.2 µM (inactive) | 26.2 µM (inactive) | 7.28 µM (inactive) | 16.9 µM (inactive)
12 | O=C(c1ccccc1)C(C(=O)c1ccccc1)C1(O)C(=O)c2ccccc2C1=O | 45.4 µM (inactive) | 16.7 µM (inactive) | 28.6 µM (inactive) | 38.7 µM (inactive) | > 10 µM (inactive) | 48.8 µM (inactive) | 28.2 µM (inactive) | – | 32.5 µM (inactive) | 25.6 µM (inactive) | 26.6 µM (inactive) | 20.4 µM (inactive) | 38.4 µM (inactive) | 31.9 µM (inactive) | 24.2 µM (inactive) | 60.3 µM (inactive)
13 | CC(C)(C)C1CC[C@H]2c3c([nH]c4ccccc34)[C@H]3C(=O)N(c4ccc(F)cc4)C(=O)[C@H]3[C@H]2C1 (stereo not given in full) | 14.5 µM (inactive) | – | 18.6 µM (inactive) | 17 µM (inactive) | 11.6 µM (inactive) | 17.8 µM (inactive) | 14.8 µM (inactive) | 13.6 µM (inactive) | 16.3 µM (inactive) | 12.1 µM (inactive) | 16.7 µM (inactive) | 16.7 µM (inactive) | 22.6 µM (inactive) | 14.1 µM (inactive) | 16.9 µM (inactive) | 28.9 µM (inactive)
14 | CCNC(=O)c1ccc(C)c(/N=N/N(C)C)c1 | – | – | > 100 µM (inactive) | > 100 µM (inactive) | > 100 µM (inactive) | – | > 100 µM (inactive) | > 100 µM (inactive) | > 100 µM (inactive) | > 100 µM (inactive) | > 100 µM (inactive) | – | > 100 µM (inactive) | > 100 µM (inactive) | – | –
15 | NC1=C(C(=O)O)C(=O)C(Nc2c(O)cccc2C(=O)O)=CC1=O | > 100 µM (inactive) | > 100 µM (inactive) | > 100 µM (inactive) | > 100 µM (inactive) | > 100 µM (inactive) | > 100 µM (inactive) | 43 µM (inactive) | 10 µM (inactive) | > 100 µM (inactive) | > 100 µM (inactive) | > 100 µM (inactive) | – | > 100 µM (inactive) | > 100 µM (inactive) | 40.1 µM (inactive) | > 100 µM (inactive)
16 | CC(C)CCCC(C)C1CCC2C3CC([N+](=O)[O-])=C4CC(O)CCC4(C)C3CCC12C (stereo not given) | 24.3 µM (inactive) | 25 µM (inactive) | 22.7 µM (inactive) | 25.9 µM (inactive) | 14.8 µM (inactive) | – | 14.2 µM (inactive) | – | 27 µM (inactive) | 21.7 µM (inactive) | 23.9 µM (inactive) | 18.2 µM (inactive) | 10.8 µM (inactive) | 43.4 µM (inactive) | 19.8 µM (inactive) | –
17 | O=[N+]([O-])c1ccccc1C1SCc2nc3ccccc3n21 (stereo not given) | – | 74.6 µM (inactive) | 54.1 µM (inactive) | > 100 µM (inactive) | – | > 100 µM (inactive) | 59.2 µM (inactive) | 78.9 µM (inactive) | 75 µM (inactive) | > 100 µM (inactive) | – | 69.5 µM (inactive) | 46.7 µM (inactive) | 92.5 µM (inactive) | 22.1 µM (inactive) | –
18 | Nc1nc(N)c(-c2ccccc2)c(C(=O)Nc2ccccc2)n1 | > 100 µM (inactive) | – | > 100 µM (inactive) | > 100 µM (inactive) | > 100 µM (inactive) | > 100 µM (inactive) | – | > 100 µM (inactive) | > 100 µM (inactive) | > 100 µM (inactive) | > 100 µM (inactive) | > 100 µM (inactive) | > 100 µM (inactive) | > 100 µM (inactive) | > 100 µM (inactive) | > 100 µM (inactive)
19 | CC1(CO)OC(n2cc(C(=O)NC(=O)OCc3ccccc3)c(=O)[nH]c2=O)CC1O (stereo not given) | > 100 µM (inactive) | > 100 µM (inactive) | > 100 µM (inactive) | > 100 µM (inactive) | > 100 µM (inactive) | > 100 µM (inactive) | > 100 µM (inactive) | > 100 µM (inactive) | – | > 100 µM (inactive) | > 100 µM (inactive) | > 100 µM (inactive) | > 100 µM (inactive) | > 100 µM (inactive) | > 100 µM (inactive) | –
